Assay results published in US20100160351A1, “PHARMACEUTICAL COMPOSITIONS AND METHODS FOR TREATING HYPERURICEMIA AND RELATED DISORDERS” (NUON THERAPEUTICS, INC., priority 2008, published 2010).

System: monosodium urate (MSU) crystal-induced air pouch inflammation
Test: Air Pouch Model 1: MSU crystal air pouch, rodent model of gout
Assay type: in vivo, male Sprague-Dawley rats
Settings: for Average Exudate Volume / Average Plasma Extravasation, OD620 nm / Total WBC in Sample / WBC: +MSU, 4 h
Experimental: The objective of this study was to evaluate the anti-inflammatory affects of tranilast versus a clinically active treatment for gout, colchicine, as well as a clinically active non-steroidal antiinflammatory drug, indomethacin. This evaluation was carried out in male Sprague-Dawley rats in a rodent model of gout. The animals were injected subcutaneously with 20 ml of sterile air, followed three days later by a supplemental injection with 20 ml of sterile air. Six days after the initial sterile air injection, the rats were injected intravenously with Evan's Blue and pretreated for thirty minutes with either a subcutaneous injection of colchicine (1 mg/kg) or indomethacin (5 mg/kg) or oral administration with either 200 mg/kg or 400 mg/kg of tranilast. After the pretreatment period, the rats were injected with 150 mg of monosodium urate (MSU) crystals (10 mg·ml) into the air pouch. Four hours later, the air pouch was injected with 5 ml heparinized saline and the entire contents of the air pouch removed, recording the total volume. The air pouch contents were evaluated for plasma extravasation and total white blood cell (WBC) count.
(§1) On day 0 the rats were anesthetized in a biological cabinet, the nape of the neck was cleansed with 70% isopropanol followed by iodine tincture (VEDCO, lot L021976). Twenty ml sterile (0.22 μm, Fisher Scientific, Cat. 09-720-3, lot R5SN25683) air was injected subcutaneously using a 23 G×2 inch needle fixed to a 20 ml syringe. The rats were returned to routine housing. No adverse reactions were observed.
as §1, with “day 3” for “day 0”
On day 6 the rats were weighed (Mettler, Model PE3000, SN: F69474) and sorted into six treatment groups of ten animals each, based upon average weight. The animals were either dosed subcutaneously with 1 ml/kg colchicine or indomethacin, or orally with either 4 ml/kg or 8 ml/kg tranilast, or 8 ml/kg vehicle. Immediately after test material administration, the rats were intravenously injected with 2 ml/kg Evans Blue.
Thirty minutes after test material administration, the rats were anesthetized and five groups were injected into the air pouch with 15 ml MSU using an 18 G×1 inch needle fitted to a 20 ml syringe. The sixth group was injected with 15 ml saline. The rats were returned to their cages, no adverse affects were observed.
Four hours after MSU injection, the rats were anesthetized and 5 ml 10 U/ml heparinized saline was injected into the air pouch. The air pouch was gently massaged, the contents immediately removed using a 14 G×1 inch needle fitted to a 6 ml syringe, and the exudate volume recorded. An aliquot of the exudate was transferred to heparin-treated microtainer tubes (Becton Dickinson, Cat. 365958, lot 8093666, exp. June 09) for white blood cell (WBC) counting. The remainder of the exudate was centrifuged (Hermle Labrotechnik, Model Z200A, SN: 44060036), the supernatants removed and evaluated at OD620nm (Spectronic Unicam, Model 4000 1/4, SN: 3SGD003006) for plasma extravasation.

[1] = Group 4: tranilast 200 mg/kg oral
[2] = Group 5: tranilast 400 mg/kg oral
[3] = oral tranilast 30 min before MSU, regardless of dose (200 or 400 mg/kg)

## COc1ccc(/C=C/C(=O)Nc2ccccc2C(=O)O)cc1OC [Tranilast, 2-[[3-(3,4-dimethoxyphenyl)-1-oxo-2-propenyl]amino]benzoic acid]
[1]
  Average Exudate Volume: 6.5 mL
  Average Plasma Extravasation, OD620 nm: 0.697
  Total WBC in Sample: 15925556
  WBC: 2524444 cells/ml
[2]
  Average Exudate Volume: 5.3 mL
  Average Plasma Extravasation, OD620 nm: 0.626
  Total WBC in Sample: 15162222
  WBC: 3144444 cells/ml
[3]
  inhibition of plasma extravasation: 60%
  inhibition of white blood cell infiltration: 95%
